Results on 15 molecules are retold here after patent US11866431B2, “Bicyclic compounds” (Vivace Therapeutics, Inc., priority 2018, dated 2024).

Each structure is given as a SMILES string.

As usually defined, the IC50 is the concentration needed to halve the response being measured.

This assay concerns 8XTBD luciferase reporter (YAP reporter) in HEK293T cells. Kind of assay: YAP Reporter Assay. Type of assay: cell-based. As to conditions: Homo sapiens, HEK-293T; HEK293T cells stably transfected with 8XTBD luciferase reporter and pRLTK; 24-hr incubation; top concentration 3 μM; read-out: Firefly Luciferase IC50. The protocol:
HEK293T cells stably transfected with 8XTBD luciferase reporter and pRLTK in 384-well plates were treated with the test compounds, starting from 3 μM (final concentration in assay plate), 1:3 dilution, and 10 points in quadruplicates. Post 24-hr incubation with compounds at 37° C. and 5% CO2, cells were lysed and 8XTBD-driven firefly luciferase and control TK-driven renilla luciferase activities were measured using Promega Dual-Luciferase Reporter Assay System.
Reagents: The reagents used for this study are: DMEM: Invitrogen #11960077, Dual-Glo Luciferase Assay System: Promega-E2980, Puromycin Dihydrochloride: Invitrogen-A1113803, 384-well plate: PerkinElmer-6007480, L-GLUTAMINE: Invitrogen-25030164, Hygromycin B: Invitrogen-10687010, and Penicillin-Streptomycin: Merk-TMS-AB2-C
Media: The media used for this assay were: Culture Medium: DMEM+1 ug/mL puromycin+200 ug/mL hygromycin (with 10% FBS+1 mM L-glutamine); and Assay Medium: DMEM (with 10% FBS+1 mM L-glutamine+1×P/S).
Cell Plating: The appropriate media was warmed at 37° C. by water bath: Culture Medium, Assay Medium, 1*D-PBS, 0.05% trypsin-EDTA. The cells were trypsinized after removing all media, then washed with 1*sterile D-PBS and then with 2 ml 0.05% trypsin-EDTA. The cells were then incubated at RT for one minute. Then 10 ml/75 cm2 flask Assay Medium was added to each flask. Using a 10 ml pipette, the cells were then gently resuspended in the media, until the clumps completely disappeared. The cells were then transferred into 50 ml centrifuge tubes and were centrifuged at 800 rpm for 5 mins. The medium was removed and the cells were resuspended with Assay Medium. An aliquot of cells was used to count the cell density (cells/ml). The cell suspension was then diluted with Assay Medium to a concentration of 6×10^4 cells/ml. 50 ul cells suspension was then plated to 384-well plate (PerkinElmer-6007480), 3×10^3 cells/well and the cells were incubated in an incubator at 37° C. 5% CO2.
Compound Treatment: In the afternoon (incubation of the plate with 3-4 hrs), the test compounds were added by Echo, starting from 3 uM (final concentration in the assay plate), 1:3 dilution, 10 points, quadruplicates. The plate was placed at 37° C. 5% CO2 incubator for 24 hrs.
Detection: The Dual-Glo Luciferase Reagent was prepared by transferring the contents of one bottle of Dual-Glo Luciferase Buffer to one bottle of Dual-Glo Luciferase Substrate to create the Dual-Glo Luciferase Reagent. Mixing was performed by inversion until the substrate was thoroughly dissolved. After mixing, the reagent was aliquoted into 15 ml tubes. In the afternoon (24 hrs post compound treatment), the DMEM+ medium in the 384 well plates were aspirated by Microplate Washer.
Measuring firefly luciferase activity: 20 ul Dual-Glo Luciferase Reagent was added to the 384-well plates. The plates were protected from light to prevent interference with the assay. The plates were shaken for 1 min followed centrifuging plates at 1000 rpm for 30 seconds. After waiting at least 10 minutes, the firefly luminescence was measured by Envision.
Measuring renilla luciferase activity: 20 ul Stop-Glo Reagent was added to the 384-well plates. The plates were shaken for 1 min and then centrifuged at 1000 rpm for 30 seconds. After waiting at least 10 minutes, the renilla luminescence was measured by Envision.
Compound IC50 and maximum inhibition on the firefly luciferase and renilla luciferase activities were reported separately.
As for `COC[C@@H](C)NC(=O)c1cnc2c(-c3ccc(C(F)(F)F)cc3)cccc2c1` [Compound 100, (R)—N-(1-methoxypropan-2-yl)-8-(4-(trifluoromethyl)phenyl)quinoline-3-carboxamide], the IC50 was 100 to 1000 nM.
As for `COCCC(=O)NCCOCCOCCNC(=O)c1ccc2c(-c3ccc(C(F)(F)F)cc3)cccc2c1` [Compound 77, N-(5-oxo-2,9,12-trioxa-6-azatetradecan-14-yl)-5-(4-(trifluoromethyl)phenyl)-2-naphthamide], the figure is 100 to 1000 nM; as for `C[C@@H](NC(=O)c1ccc2c(-c3ccc(C(F)(F)F)cc3)cccc2c1)c1ccccc1Cl` [Compound 206, (R)—N-(1-(2-chlorophenyl)ethyl)-5-(4-(trifluoromethyl)phenyl)-2-naphthamide], less than 100 nM; as for `COC[C@H](C)NC(=O)c1cnc2c(-c3ccc(C(F)(F)F)cc3)cc(OC)cc2c1` [Compound 109, 6-methoxy-N-[(1S)-2-methoxy-1-methyl-ethyl]-8-[4-(trifluoromethyl)phenyl]quinoline-3-carboxamide], less than 100 nM.
Turning to `CC(C)NC(=O)c1ccc2c(-c3ccc(C(F)(F)F)cc3)cc([S+](C)[O-])cc2c1` (stereo not drawn) [Compound 45, N-isopropyl-7-methylsulfinyl-5-[4-(trifluoromethyl)phenyl]naphthalene-2-carboxamide], the IC50 lay in the range of 100 to 1000 nM.
As for `O=C(NCc1ncns1)c1ccc2c(-c3ccc(C(F)(F)F)cc3)cccc2c1` [Compound 220, N-((1,2,4-thiadiazol-5-yl)methyl)-5-(4-(trifluoromethyl)phenyl)-2-naphthamide], the figure is less than 100 nM; as for `CC(C)NC(=O)c1ccc2c(-c3ccc(C(F)(F)F)cc3)ccc(NC(=O)OC(C)(C)C)c2c1` [Compound 12, Tert-Butyl (7-(isopropylcarbamoyl)-4-(4-(trifluoromethyl)phenyl)naphthalen-1-yl)carbamate], 100 to 1000 nM.
In the case of `CC(=O)Nc1cccc(CNC(=O)c2ccc3c(-c4ccc(C(F)(F)F)cc4)cccc3c2)c1` [Compound 237, N-(3-acetamidobenzyl)-5-(4-(trifluoromethyl)phenyl)-2-naphthamide], the IC50 was less than 100 nM.
On to `COCCNC(=O)c1ccc2c(-c3ccc(C(F)(F)F)cc3)cccc2c1` [Compound 58, N-(2-methoxyethyl)-5-(4-(trifluoromethyl)phenyl)-2-naphthamide], for which the IC50 is less than 100 nM.
As for `O=C(NCc1cccc(F)n1)c1ccc2c(-c3ccc(C(F)(F)F)cc3)cccc2c1` [Compound 190, N-((6-fluoropyridin-2-yl)methyl)-5-(4-(trifluoromethyl)phenyl)-2-naphthamide], the figure is 100 to 1000 nM; as for `COc1cc(-c2ccc(C(F)(F)F)cc2)c2ccc(C(=O)NC(C)C)cc2c1` [Compound 39, N-isopropyl-7-methoxy-5-[4-(trifluoromethyl)phenyl]naphthalene-2-carboxamide], less than 100 nM; as for `O=C(NC1CC1)c1ccc2c(-c3ccc(C(F)(F)F)cc3)cccc2c1` [Compound 55, N-cyclopropyl-5-(4-(trifluoromethyl)phenyl)-2-naphthamide], less than 100 nM.
To `C[C@@H](NC(=O)c1ccc2c(-c3ccc(C(F)(F)F)cc3)cccc2c1)C1CN(C2CC2)C1` [Compound 320, (R)-N-(1-(1-cyclopropylazetidin-3-yl)ethyl)-5-(4-(trifluoromethyl)phenyl)-2-naphthamide] belongs 100 to 1000 nM.
As for `COC[C@@H](C)NC(=O)c1ccc2c(-c3ccc(C(F)(F)F)cc3)cccc2c1` [Compound 93, (R)—N-(1-methoxypropan-2-yl)-5-(4-(trifluoromethyl)phenyl)-2-naphthamide], the IC50 is less than 100 nM.
To `O=C(O)c1ccc2c(-c3ccc(C(F)(F)F)s3)cccc2c1` [Compound 332, 5-[5-(trifluoromethyl)-2-thienyl]naphthalene-2-carboxylic acid] belongs less than 100 nM.
